What was measured:
[1] = target: Potassium voltage-gated channel subfamily KQT member 2 (Mus musculus, UniProt Q9Z351); assay: Effect on outward potassium currents in whole-cell patch clamp assay of HEK 293 cells expressing cloned mouse KCNQ2 channel at -40 mV; assay type: functional, cell-based, HEK293
[2] = target: Potassium voltage-gated channel subfamily KQT member 2 (Mus musculus) (UniProt Q9Z351); assay: Relative efficacy as ratio of maximal current amplitudes for compound and reference; assay type: functional
Chain of Potassium voltage-gated channel subfamily KQT member 2 (Mus musculus) (Q9Z351 whole entry): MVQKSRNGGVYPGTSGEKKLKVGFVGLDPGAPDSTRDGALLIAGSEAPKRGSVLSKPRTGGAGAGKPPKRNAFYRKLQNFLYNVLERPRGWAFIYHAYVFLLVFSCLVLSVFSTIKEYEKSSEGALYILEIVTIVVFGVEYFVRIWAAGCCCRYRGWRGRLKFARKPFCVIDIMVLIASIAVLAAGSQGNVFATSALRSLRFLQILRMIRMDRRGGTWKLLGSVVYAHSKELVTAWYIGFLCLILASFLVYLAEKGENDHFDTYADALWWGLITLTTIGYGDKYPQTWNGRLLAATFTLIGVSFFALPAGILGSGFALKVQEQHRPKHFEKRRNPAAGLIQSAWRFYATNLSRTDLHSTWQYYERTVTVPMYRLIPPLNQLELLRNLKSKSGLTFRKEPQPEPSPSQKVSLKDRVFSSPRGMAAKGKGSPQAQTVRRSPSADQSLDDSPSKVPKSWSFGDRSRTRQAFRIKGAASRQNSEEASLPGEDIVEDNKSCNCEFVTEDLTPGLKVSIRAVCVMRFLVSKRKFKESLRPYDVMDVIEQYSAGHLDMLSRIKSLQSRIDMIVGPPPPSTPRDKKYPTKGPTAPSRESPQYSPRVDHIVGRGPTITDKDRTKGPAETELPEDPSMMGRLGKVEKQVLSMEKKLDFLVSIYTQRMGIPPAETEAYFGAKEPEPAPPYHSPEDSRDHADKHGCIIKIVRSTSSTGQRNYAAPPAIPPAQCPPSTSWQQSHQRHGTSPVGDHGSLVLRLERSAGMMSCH

Chain of Potassium voltage-gated channel subfamily KQT member 2 (Q9Z351 whole entry): as above

C[C@H](NC(=O)/C=C/c1ccccc1F)c1cccc(-n2cccn2)c1
EC50 [1]: 120 nM | E/Eref [2]: 1.6

C[C@H](NC(=O)/C=C/c1ccccc1F)c1cccc(-c2ccc(F)nc2)c1
EC50 [1]: 10 nM | E/Eref [2]: 0.85

C[C@H](NC(=O)/C=C/c1ccccc1F)c1cccc(-n2cncn2)c1
EC50 [1]: 330 nM | E/Eref [2]: 1.2

C[C@H](NC(=O)/C=C/c1ccccc1F)c1ccc2c(c1)N(CC1CC1)CCO2
E/Eref [2]: 1.83

CCOC(=O)Nc1ccc(NCc2ccc(F)cc2)cc1N
E/Eref [2]: 1.6

C[C@H](NC(=O)/C=C/c1ccccc1F)c1cccc(-c2ccccn2)c1
EC50 [1]: 1200 nM | E/Eref [2]: 1.8

C[C@H](NC(=O)/C=C/c1ccccc1)c1cccc(N2CCOCC2)c1
EC50 [1]: 3200 nM | E/Eref [2]: 1.4

C[C@H](NC(=O)/C=C/c1ccccc1Cl)c1ccc2c(c1)OCO2
EC50 [1]: 20 nM | E/Eref [2]: 1.1

C[C@H](NC(=O)/C=C/c1ccccc1)c1cccc(-n2cccn2)c1
EC50 [1]: 1200 nM | E/Eref [2]: 1.9

C[C@H](NC(=O)/C=C/c1ccccc1F)c1cccc(-c2cnccn2)c1
EC50 [1]: 370 nM | E/Eref [2]: 1.57

— ChEMBL document CHEMBL1142835, “(S,E)-N-[1-(3-heteroarylphenyl)ethyl]-3-(2-fluorophenyl)acrylamides: synthesis and KCNQ2 potassium channel opener activity” (Bioorg Med Chem Lett, 2005)
